In publication PMC5468247, “Development of a selective agonist for relaxin family peptide receptor 3” (Scientific Reports, 2017):

Columns and labels:
human RXFP4 [1] = target: T1, human RXFP4 (Homo sapiens, UniProt Q8TDU9); experiment: Receptor activation assay, CRE-controlled NanoLuc reporter; assay type: cell-based; settings: for fold lower activation potency towards RXFP4 compared with R3/I5: relative to R3/I5; for activation potency towards RXFP4, in words: compared with R3/I5
T1 construct: expressed in transfected cells; host or cells: HEK293T
T1 sequence (Q8TDU9 whole entry): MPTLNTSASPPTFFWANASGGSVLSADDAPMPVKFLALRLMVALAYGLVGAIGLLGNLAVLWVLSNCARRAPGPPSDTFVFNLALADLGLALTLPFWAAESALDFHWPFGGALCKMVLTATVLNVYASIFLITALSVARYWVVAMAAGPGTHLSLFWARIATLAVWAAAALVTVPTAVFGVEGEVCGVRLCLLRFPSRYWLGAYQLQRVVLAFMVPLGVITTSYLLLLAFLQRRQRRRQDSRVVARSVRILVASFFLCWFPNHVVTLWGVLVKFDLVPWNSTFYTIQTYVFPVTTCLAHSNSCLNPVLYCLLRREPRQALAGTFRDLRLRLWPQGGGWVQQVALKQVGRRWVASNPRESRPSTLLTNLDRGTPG
Excerpt: (§1) HEK293T cells transiently cotransfected with a CRE-controlled NanoLuc reporter vector and the expression construct of human RXFP3 or human RXFP4 were used for activation assays. The measured bioluminescence data are expressed as means ± SE (n = 3) and fitted to sigmoidal or linear curves using SigmaPlot 10.0.
(§2) Briefly, HEK293T cells were transiently cotransfected with the NanoLuc reporter vector pNL1.2/CRE and the expression construct of human RXFP3 or human RXFP4. On the next day, transfected cells were trypsinised, seeded into 96-well plates, and continuously cultured for 24–36 h to ~90% confluence. To initiate activation assays, medium was removed and activation solution (serum-free DMEM medium plus 1% bovine serum albumin) containing 1.0 μM of forskolin and various concentrations of peptide was added (100 μl/well). After continuous culturing at 37 °C for 4 h, activation solution was removed and cells were lysed with lysis solution (100 μl/well, Promega). Cell lysates were then transferred to a white opaque 96-well plate (50 μl/well), mixed with freshly diluted substrate (50 μl/well), and bioluminescence was immediately measured on a SpectraMax M5 plate reader (Molecular Devices) in luminescence mode. The measured data were expressed as means ± SE (n = 3) and fitted to sigmoidal or linear curves using SigmaPlot 10.0 software.

human RXFP3 [2] = target: T2, human RXFP3 (Homo sapiens, UniProt Q9NSD7); experiment: as above; assay type: cell-based; settings: for activation potency towards RXFP3, in words: CRE-NanoLuc reporter, human RXFP3, compared with R3/I5
T2 construct: expressed in transfected cells; host or cells: HEK293T
T2 sequence (Q9NSD7 1-469): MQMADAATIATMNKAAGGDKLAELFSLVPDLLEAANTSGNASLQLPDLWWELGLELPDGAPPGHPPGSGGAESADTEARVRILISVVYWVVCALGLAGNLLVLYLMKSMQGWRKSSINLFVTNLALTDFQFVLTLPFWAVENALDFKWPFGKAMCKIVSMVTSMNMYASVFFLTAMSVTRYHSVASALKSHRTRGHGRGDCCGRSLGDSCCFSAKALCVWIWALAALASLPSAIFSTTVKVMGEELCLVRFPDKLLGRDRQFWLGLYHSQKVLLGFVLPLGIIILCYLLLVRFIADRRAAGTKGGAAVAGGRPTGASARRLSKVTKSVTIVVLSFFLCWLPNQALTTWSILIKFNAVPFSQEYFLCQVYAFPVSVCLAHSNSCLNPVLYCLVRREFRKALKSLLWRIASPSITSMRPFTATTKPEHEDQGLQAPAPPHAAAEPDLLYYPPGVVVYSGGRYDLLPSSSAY
Excerpt: as §1, §2

human RXFP4 [3] = target: T1, human RXFP4; experiment: Receptor binding assay, NanoLuc-conjugated R3/I5 tracer competition; settings: for binding potency towards RXFP4, in words: compared with R3/I5
Experimental: (§3) Specific binding data are expressed as means ± SE (n = 3) and fitted to sigmoidal curves using SigmaPlot 10.0 software.
(§4) Briefly, HEK293T cells were transiently transfected with an expression construct of human RXFP3 or human RXFP4. On the next day, transfected cells were trypsinised, seeded into 96-well plates, and continuously cultured for 24–36 h to ~100% confluence. […] After incubation at 21 °C for 2 h, binding solution was removed and cells were washed twice with ice-cold phosphate-buffered saline (200 μl/well for each wash). Thereafter, cells were lysed by lysis solution (100 μl/well, Promega, Madison, WI, USA) and cell lysates were transferred to a white opaque 96-well plate (50 μl/well). After mixing with freshly diluted substrate (50 μl/well), bioluminescence was immediately measured on a SpectraMax M5 plate reader (Molecular Devices, Sunnyvale, CA, USA) in luminescence mode. […] The calculated specific binding data were expressed as means ± standard error (SE; n = 3) and fitted to sigmoidal curves using SigmaPlot 10.0 software.

human RXFP3 [4] = target: T2, human RXFP3; experiment: as above; settings: compared with R3/I5
Experimental: as §3, §4

binding potency towards RXFP4, in words (human RXFP4 [3])	activation potency towards RXFP4, in words (human RXFP4 [1])	Structure (SMILES)	fold lower activation potency towards RXFP4 compared with R3/I5 (human RXFP4 [1])	activation potency towards RXFP3, in words (human RXFP3 [2])	binding potency towards RXFP3, in words (human RXFP3 [4])	fold higher activation potency towards RXFP3 than towards RXFP4 (human RXFP3 [2]; selectivity RXFP3 over RXFP4, from activation assays) [fold]	fold lower binding potency towards RXFP4 compared with R3/I5 (human RXFP4 [3]; relative to R3/I5) [fold]
retained full binding potency	retained full activation potency	CC[C@H](C)[C@@H]1NC(=O)[C@H](Cc2ccccc2)NC(=O)[C@H](CCC(=O)O)NC(=O)[C@H](CCCNC(=N)N)NC(=O)CNC(=O)[C@@H](NC(=O)[C@H](CC(C)C)NC(=O)[C@H](CCCNC(=N)N)NC(=O)[C@@H](NC(=O)CNC(=O)[C@H](Cc2ccc(O)cc2)NC(=O)[C@@H]2CCCN2C(=O)[C@H](C)NC(=O)[C@H](C)NC(=O)[C@H](CCCNC(=N)N)NC(=O)[C@@H]2CCC(=O)N2)C(C)C)CSSC[C@@H]2NC(=O)[C@@H](NC(=O)[C@H](CC(C)C)NC(=O)[C@@H](NC(=O)[C@H](CCC(N)=O)NC(=O)[C@H](CC(C)C)NC(=O)[C@H](CC(=O)O)NC(=O)[C@H](CCC(N)=O)NC(=O)[C@H](CCCNC(=N)N)NC(=O)[C@H](CO)NC(=O)[C@H](CCCNC(=N)N)NC(=O)[C@H](CCCNC(=N)N)NC(=O)[C@H](CO)NC(=O)[C@@H](N)CCCNC(=N)N)[C@@H](C)O)CSSC[C@H](NC(=O)CNC(=O)[C@H](CC(=O)O)NC(=O)[C@H]([C@@H](C)O)NC2=O)C(=O)N[C@@H](CO)C(=O)N[C@@H](CCSC)C(=O)N[C@@H]([C@@H](C)O)C(=O)N[C@@H](CC(=O)O)C(=O)N[C@@H](CC(C)C)C(=O)N[C@@H](CO)C(=O)N[C@@H](C)C(=O)N[C@@H](CC(C)C)C(=O)N[C@H](C(=O)O)CSSC[C@@H](C(=O)NCC(=O)N[C@@H](C)C(=O)N[C@@H](CO)C(=O)N[C@@H](CCCNC(=N)N)C(=O)N[C@@H](Cc2c[nH]c3ccccc23)C(=O)O)NC(=O)[C@H]([C@@H](C)O)NC(=O)[C@H](Cc2ccccc2)NC(=O)[C@H]([C@@H](C)CC)NC(=O)[C@H](C(C)C)NC(=O)[C@H](C)NC(=O)[C@H](CCCNC(=N)N)NC1=O [[G(B24)A]R3/I5]	–	retained full activation potency	retained full binding potency	–	–
retained low binding potency	lost all activation potency	CC[C@H](C)[C@@H]1NC(=O)[C@H](Cc2ccccc2)NC(=O)[C@H](CCC(=O)O)NC(=O)[C@H](CCCNC(=N)N)NC(=O)CNC(=O)[C@@H](NC(=O)[C@H](CC(C)C)NC(=O)[C@H](CCCNC(=N)N)NC(=O)[C@@H](NC(=O)CNC(=O)[C@H](Cc2ccc(O)cc2)NC(=O)[C@@H]2CCCN2C(=O)[C@H](C)NC(=O)[C@H](C)NC(=O)[C@H](CCCNC(=N)N)NC(=O)[C@@H]2CCC(=O)N2)C(C)C)CSSC[C@@H]2NC(=O)[C@@H](NC(=O)[C@H](CC(C)C)NC(=O)[C@@H](NC(=O)[C@H](CCC(N)=O)NC(=O)[C@H](CC(C)C)NC(=O)[C@H](CC(=O)O)NC(=O)[C@H](CCC(N)=O)NC(=O)[C@H](CCCNC(=N)N)NC(=O)[C@H](CO)NC(=O)[C@H](CCCNC(=N)N)NC(=O)[C@H](CCCNC(=N)N)NC(=O)[C@H](CO)NC(=O)[C@@H](N)CCCNC(=N)N)[C@@H](C)O)CSSC[C@H](NC(=O)CNC(=O)[C@H](CC(=O)O)NC(=O)[C@H]([C@@H](C)O)NC2=O)C(=O)N[C@@H](CO)C(=O)N[C@@H](CCSC)C(=O)N[C@@H]([C@@H](C)O)C(=O)N[C@@H](CC(=O)O)C(=O)N[C@@H](CC(C)C)C(=O)N[C@@H](CO)C(=O)N[C@@H](C)C(=O)N[C@@H](CC(C)C)C(=O)N[C@H](C(=O)O)CSSC[C@@H](C(=O)NCC(=O)N[C@@H](CCC(=O)O)C(=O)N[C@@H](CO)C(=O)N[C@@H](CCCNC(=N)N)C(=O)N[C@@H](Cc2c[nH]c3ccccc23)C(=O)O)NC(=O)[C@H]([C@@H](C)O)NC(=O)[C@H](Cc2ccccc2)NC(=O)[C@H]([C@@H](C)CC)NC(=O)[C@H](C(C)C)NC(=O)[C@H](C)NC(=O)[C@H](CCCNC(=N)N)NC1=O [[G(B24)E]R3/I5]	–	lost all activation potency	retained low binding potency	–	–
–	–	CC[C@H](C)[C@@H]1NC(=O)[C@H](Cc2ccccc2)NC(=O)[C@H](CCC(=O)O)NC(=O)[C@H](CCCNC(=N)N)NC(=O)CNC(=O)[C@@H](NC(=O)[C@H](CC(C)C)NC(=O)[C@H](CCCNC(=N)N)NC(=O)[C@@H](NC(=O)CNC(=O)[C@H](Cc2ccc(O)cc2)NC(=O)[C@@H]2CCCN2C(=O)[C@H](C)NC(=O)[C@H](C)NC(=O)[C@H](CCCNC(=N)N)NC(=O)[C@@H]2CCC(=O)N2)C(C)C)CSSC[C@@H]2NC(=O)[C@@H](NC(=O)[C@H](CC(C)C)NC(=O)[C@@H](NC(=O)[C@H](CCC(N)=O)NC(=O)[C@H](CC(C)C)NC(=O)[C@H](CC(=O)O)NC(=O)[C@H](CCC(N)=O)NC(=O)[C@H](CCCNC(=N)N)NC(=O)[C@H](CO)NC(=O)[C@H](CCCNC(=N)N)NC(=O)[C@H](CCCNC(=N)N)NC(=O)[C@H](CO)NC(=O)[C@@H](N)CCCNC(=N)N)[C@@H](C)O)CSSC[C@H](NC(=O)CNC(=O)[C@H](CC(=O)O)NC(=O)[C@H]([C@@H](C)O)NC2=O)C(=O)N[C@@H](CO)C(=O)N[C@@H](CCSC)C(=O)N[C@@H]([C@@H](C)O)C(=O)N[C@@H](CC(=O)O)C(=O)N[C@@H](CC(C)C)C(=O)N[C@@H](CO)C(=O)N[C@@H](C)C(=O)N[C@@H](CC(C)C)C(=O)N[C@H](C(=O)O)CSSC[C@@H](C(=O)NCC(=O)N[C@@H](CO)C(=O)N[C@@H](CO)C(=O)N[C@@H](CCCNC(=N)N)C(=O)N[C@@H](Cc2c[nH]c3ccccc23)C(=O)O)NC(=O)[C@H]([C@@H](C)O)NC(=O)[C@H](Cc2ccccc2)NC(=O)[C@H]([C@@H](C)CC)NC(=O)[C@H](C(C)C)NC(=O)[C@H](C)NC(=O)[C@H](CCCNC(=N)N)NC1=O [[G(B24)S]R3/I5]	20 fold	retained full activation and binding potencies	retained full activation and binding potencies	20	2

Structure (SMILES)	binding potency towards RXFP4, in words (human RXFP4 [3])	activation potency towards RXFP4, in words (human RXFP4 [1])	fold lower activation potency towards RXFP4 compared with R3/I5 (human RXFP4 [1])	activation potency towards RXFP3, in words (human RXFP3 [2])	binding potency towards RXFP3, in words (human RXFP3 [4])	fold higher activation potency towards RXFP3 than towards RXFP4 (human RXFP3 [2]; selectivity RXFP3 over RXFP4, from activation assays) [fold]	fold lower binding potency towards RXFP4 compared with R3/I5 (human RXFP4 [3]; relative to R3/I5) [fold]
CC[C@H](C)[C@@H]1NC(=O)[C@H](Cc2ccccc2)NC(=O)[C@H](CCC(=O)O)NC(=O)[C@H](CCCNC(=N)N)NC(=O)CNC(=O)[C@@H](NC(=O)[C@H](CC(C)C)NC(=O)[C@H](CCCNC(=N)N)NC(=O)[C@@H](NC(=O)CNC(=O)[C@H](Cc2ccc(O)cc2)NC(=O)[C@@H]2CCCN2C(=O)[C@H](C)NC(=O)[C@H](C)NC(=O)[C@H](CCCNC(=N)N)NC(=O)[C@@H]2CCC(=O)N2)C(C)C)CSSC[C@@H]2NC(=O)[C@@H](NC(=O)[C@H](CC(C)C)NC(=O)[C@@H](NC(=O)[C@H](CCC(N)=O)NC(=O)[C@H](CC(C)C)NC(=O)[C@H](CC(=O)O)NC(=O)[C@H](CCC(N)=O)NC(=O)[C@H](CCCNC(=N)N)NC(=O)[C@H](CO)NC(=O)[C@H](CCCNC(=N)N)NC(=O)[C@H](CCCNC(=N)N)NC(=O)[C@H](CO)NC(=O)[C@@H](N)CCCNC(=N)N)[C@@H](C)O)CSSC[C@H](NC(=O)CNC(=O)[C@H](CC(=O)O)NC(=O)[C@H]([C@@H](C)O)NC2=O)C(=O)N[C@@H](CO)C(=O)N[C@@H](CCSC)C(=O)N[C@@H]([C@@H](C)O)C(=O)N[C@@H](CC(=O)O)C(=O)N[C@@H](CC(C)C)C(=O)N[C@@H](CO)C(=O)N[C@@H](C)C(=O)N[C@@H](CC(C)C)C(=O)N[C@H](C(=O)O)CSSC[C@@H](C(=O)N[C@@H](CO)C(=O)NCC(=O)N[C@@H](CO)C(=O)N[C@@H](CCCNC(=N)N)C(=O)N[C@@H](Cc2c[nH]c3ccccc23)C(=O)O)NC(=O)[C@H]([C@@H](C)O)NC(=O)[C@H](Cc2ccccc2)NC(=O)[C@H]([C@@H](C)CC)NC(=O)[C@H](C(C)C)NC(=O)[C@H](C)NC(=O)[C@H](CCCNC(=N)N)NC1=O [[G(B23)S]R3/I5]	retained high binding potency	–	~ 100 fold	lost all activation potency	retained considerable binding potency	–	–
